Data on seven compounds can be found in patent publication US9133208B2, “Radiolabelled rotenone derivatives and their use in SPECT imaging” (priority 2011, dated 2015).

The nature of data set [1]: Ex vivo biodistribution in Sprague-Dawley rats. Particulars: 2 hr p.i. How it is done: An amount of 0.5 mL of a 2.4 mCi/mL mixture of compounds 6-9 (Mixture A: composition comprising isomeric mixture of 12% 6 and 7 diastereomers; 88% 8 and 9 diastereomers) in 7% ethanol was diluted with 0.58 mL of 10 mM sodium acetate, pH 6.5 and 0.023 mL of 95% ethanol, to produce a 1.1 mL of a 1.1 mCi/mL solution having a value of pH of about 5. An amount of 0.8 mL of this solution (0.9 mCi) was injected through the tail veins of 14 Sprague-Dawley rats. Six of the rats were used to assess biodistribution of the mixture of compounds 6-9 after two hours, and the remaining eight rats were used to determine the biodistribution of the compounds after 24 hours. Selected organs were collected and weighed and the activity was measured for each organ with a gamma well counter using the detection range of 138-207 keV, and the measured values of activity were decay-corrected to the time of injection. The values of percentage of injected dose per gram of tissue (% ID/g) were calculated by taking the ratio of the activity in the organ over the total activity injected per gram of tissue. Uptake in the heart of the rat was confirmed by the SPECT/CT images shown in FIG. 5, in which the heart is well defined.
A biodistribution study was conducted according to the method described above using purified fractions of the mixture of isomers 6-9 (Mixture A).
FIGS. 3B-3E show HPLC chromatograms of the four separate fractions used in the biodistribution study: Fraction 1: fraction comprising 100% of Component A*; Fraction 2: fraction comprising an isomeric mixture comprising 15.2% Component A* and 84.8% Component B*; Fraction 3: fraction comprising an isomeric mixture comprising 4.4% Component A*, 4.4% Component B* and 91.2% Component C*; Fraction 4: fraction comprising an isomeric mixture comprising 1.5% Component A*, 0.8% Component B* and 97.7% Component D*.

The next data set deals with pig heart. Nature of the data set: Uptake of radiotracers as a function of myocardial blood flow (MBF) in pig heart. It is filed as in vivo. Particulars: for myocardial flow rate at which uptake begins to level off (roll off): two hours after injection, stress and induced ischemic conditions. The text has this: The tissue and blood samples were weighed and measured using a gamma well counter to determine the amount of gamma radiation emitted by the I-123 radiolabel of the radio-iodinated tracers of the present invention. The measured gamma radiation in each segment represents the combined amount of gamma radiation emitted by the tracers in that segment during the resting and stressed states of the heart. The counts and the weights of the samples were also used to calculate the percentage of injected dose per gram of tissue (% ID/g). After the I-123 in the blood and tissue samples had completely decayed, both the tissue and the blood were dried in an oven at 70° C. for 48-72 h, the samples were sent for neutron activation and the gamma radiation emitted by each of the resulting radioactive [^198Au]gold-containing microspheres and [^153Sm]samarium-containing microspheres, which were embedded in the samples, were measured. Polar maps of the resting and stressed states of the isolated heart of the pig were generated using MATLAB™ to assemble the gamma measurement results in all the transected segments from the bottom (apex) to the top (AV groove) of the pig heart.
The myocardial blood flow (MBF) that was present in the tissue samples during the resting and stressed states was determined from the total amount of gamma radiation emitted from each of the radioactive gold and samarium microspheres, respectively, in the isolated transections of the heart of the pig and the dried blood sample according to the following equation: MBF=[(Reference blood sample withdrawal rate (4 mL/min)/(Weight of myocardial sample (g)]×[Isotope count (myocardial sample)/Isotope counts (reference blood sample)].
FIG. 8 illustrates a plot of uptake (percent of injected dose per gram of tissue; % ID/g) of the radiotracer compounds of the present invention as a function of the myocardial blood flow in the pig heart under stress and induced ischemic conditions as determined using the marked microspheres.

In data set [2] the test system is dog heart. Kind of data set: Literature tracer uptake vs microsphere flow in dog with critical LAD stenosis (Broisat et al., Glover et al.). It is filed as in vivo. From the text: The slope of a non-linear fitted line to the ^123I-ZIROT data shown in FIG. 3 of Broisat et al. is −3.59.
The test system of the next data set is rabbit hearts. Nature of the data set: Myocardial distribution in isolated retrograde perfused (Langendorff) rabbit heart. Particulars: for fractional appearance rates at later time points / initial peak fractional venous appearance rate: flow rate 1.7 ml/min/g LV, FIG. 9, qualitative. The arrangement: species or system New Zealand White rabbits. The method, then: Preparation of retrograde perfusion (Langendorff) was performed as previously described (R. C. Marshall, P. Powers-Risius, B. W. Reutter, S. E. Taylor, H. F. VanBrocklin, R. H. Huesman, T. F. Budinger J Nucl Med. 2001; 42:272-281, which is incorporated by reference herein) using hearts from 1.5-2.5 kg male New Zealand White rabbits (Charles River, Wilmington Mass.). Following an injection of heparin (5 mg/kg) and median sternotomy, hearts were excised keeping the ascending aorta and aortic branches, lungs and thymus intact. The hearts were immediately placed into an ice-cold bath containing modified Tyrode's solution ([…], 1 mM MgCl2, 28 mM NaHCO3, 0.44 mM NaH2PO4, 2.5 mM CaCl2, 6 mM KCl, 5 mM glucose, […] with 22 g/L BSA and aerated with 95% O2/5% CO2) and thymus and fatty tissue were quickly removed. The hearts were then suspended on an aortic cannula and perfused with pre-warmed modified Tyrode's buffer through a water jacketed, temperature regulated Langendorff perfusion system (Radnotti, Calif., USA) at a constant flow rate. Total time for suspension onto the Langendorff apparatus was typically 60 seconds or less. Following suspension on the aortic cannula, the remaining lung, trachea and extraneous tissues were removed.
Fluid from Thebesian circulation was drained via a polyethylene catheterized apical drain. A fluid filled latex ballon connected to a pressure transducer (Radnotti) was inserted into the left ventrical via the left atrium and mitral valve. Following excision of the right atrium, a pacing electrode (Radnotti) was placed at the level of the atria to allow controlled pacing of the heart.
Following final preparation, the left ventricular balloon was inflated to achieve an end-diastolic pressure of approximately 8-10 mmHg with a constant systolic pressure held between 60-80 mm Hg. The heart was continually perfused with modified Tyrode's solution warmed to 38° C. and was held in an enclosed chamber to maintain humidity and temperature. The heart was paced with a Grass SD9 stimulator (Harvard Apparatus, Montreal QC) at 180 beats per minute with a stimulus of 4 V delivered over 4 ms. Perfusion and ventricular pressures were monitored throughout the experiment using a BioPac data acquisition system (BioPac, Montreal QC).
Radioactivity from all samples were counted in a gamma counter and data was analyzed using Matlab software. […] Maximal uptake values were determined for ^99mTc-sestamibi and Mixture A at varying flow rates (0.35-3.1 ml/min/g LV wet weight).

Data set [3] relates to dog heart. Particulars: representative dog, critical LAD stenosis, intravenous adenosine; cited from earlier work.
For data set [4] the following is noted: compared with FIG. 9; cited from earlier work.
The nature of data set [5]: Literature isolated perfused heart data of Marshall et al. 2001. From the text:
A slower myocardial exit is beneficial for clinical diagnostic imaging since this permits the physician to gather images over a longer period of time thereby increasing image resolution, sensitivity and quality.
Marshall et al. report slopes of 0.29 and 0.78 for the fitted linear lines to the maximal uptake data for ^99mTc-sestamibi and ^125I-rotenone, respectively. The slopes of the fitted lines to the data for ^99mTc-sestamibi and the isomers of Mixture A shown in FIG. 10 of the present application are 0.33 and 0.86, respectively. The value of the ratio of the slopes of the fitted lines for ^125I-rotenone and ^99mTc-sestamibi from Marshall et al. is 2.69, while the value of the ratio of the slopes of the fitted lines for Mixture A and ^99mTc-sestamibi shown in FIG. 10 is 2.61. […] A linear uptake of tracer with increasing flow is especially desired in a clinical setting since in patients, deficiencies in myocardial perfusion are almost exclusively detected at higher blood flow rates, i.e. during a stress test by comparison of low (ischemic) and high flow (normal) areas.

The next data set relates to rat cardiomyocytes. Nature of the data set: Cell uptake (internalization) assay with labeled rotenone derivatives. The class given is cell-based. Particulars: 0.5 μCi tracer, time points up to 5 min. The method, then: An internalization assay was used to test the in vitro function of candidate perfusion tracers. In this assay, cultures of rat cardiomyocytes were plated at a density of 3-5×10^5 cells/mL into 24-well tissue culture plates. The cardiomyocytes were then incubated with 0.5 μCi of radiolabeled tracer ^99mTc-tetrofosmin (Myoview™) or [^123I] iodinated rotenone (mixture containing isomers 6-9) mixed in cell culture medium (DMEM) and incubated for up to five minutes. At different time points, the total supernatant was collected, the cells were washed twice with PBS and then exposed and lysed with 1 M NaOH for 15 min. Samples were counted in a gamma well counter and the cellular protein was determined for the lysed samples. The data was analyzed to represent the total “internalized” fraction expressed as cpm per total protein (FIG. 4).

Setting [6] is: flow rates 0.35-3.1 ml/min/g LV wet weight.

As for `COc1cc2c(cc1OC)[C@@H]1C(=O)c3ccc4c(c3O[C@@H]1CO2)C[C@H](C(C)([123I])CO)O4` (single isomer, unassigned) [B*], in data set [1], the Heart result was “slightly lower”, the Heart/Liver ratio result is given as “relatively higher”, the Intestine result is on record as “significantly higher than others” and the Liver entry is “much lower”.

In data set [1], `COc1cc2c(cc1OC)[C@@H]1C(=O)c3ccc4c(c3O[C@@H]1CO2)C[C@H](C(C)([123I])CO)O4` (single isomer, unassigned) [Fraction 1] registered a Blood of 0.191 ± 0.040 % ID/g, a Brain of 0.063 ± 0.013 % ID/g, a Femur of 0.239 ± 0.083 % ID/g and a Heart of 1.617 ± 0.335 % ID/g. In data set [1], the Heart/Blood ratio is 8.46 ± 0.51, the Heart/Liver ratio is recorded as 1.20 ± 0.35, the Heart/Lung ratio amounted to 4.54 ± 0.59 and the Intestine is given as 0.787 ± 0.186 % ID/g. Moreover, in data set [1], the Kidney is listed as 0.634 ± 0.099 % ID/g, the Liver came out at 1.363 ± 0.101 % ID/g, the Lung was 0.357 ± 0.059 % ID/g and the Muscle was determined as 0.369 ± 0.117 % ID/g. For the same compound, in data set [1], the Spleen is 0.177 ± 0.031 % ID/g, the Stomach is reported as 1.628 ± 0.837 % ID/g, the Testis stood at 0.128 ± 0.017 % ID/g and the Thyroid is 0.826 ± 0.191 % ID/g. In addition, the Urine in data set [1] was determined as 0.528 ± 0.134 % ID/g.

For `[C-]#[N+]CC(C)(C)OC.[C-]#[N+]CC(C)(C)OC.[C-]#[N+]CC(C)(C)OC.[C-]#[N+]CC(C)(C)OC.[C-]#[N+]CC(C)(C)OC.[C-]#[N+]CC(C)(C)OC.[Tc]` [^99mTc-sestamibi], the “slope of the non-linear fitted line, uptake (% ID/g) vs MBF (FIG. 8)” value in the data set on pig heart (pig hearts) was −1.21. In addition, the “myocardial flow rate at which uptake begins to level off (roll off)” value in the data set on pig heart came out at 1.5 mL/min/g. Further, in the data set on dog heart [2] (representative dog, critical LAD stenosis, intravenous adenosine), the “standardized slope (Glover et al. slope divided by 100)” value is reported as −1.43. In the data set with rabbit hearts, the “fractional appearance rates at later time points” value was “higher fractional appearance rates” and the “initial peak fractional venous appearance rate” value is recorded as “lower fractional venous appearance rates”. In addition, in the data set on rabbit hearts (setting [6]), the “intercept of linear regression, maximum net uptake vs flow” value was found to be 0.14 and the “slope of linear regression, maximum net uptake vs flow (FIG. 10)” value worked out at 0.33. Besides, the “slope of non-linear fitted line, activity (% normal) vs microsphere flow (FIG. 4 of Glover et al.)” value in the data set on dog heart [3] is −143.

Consider `COc1cc2c(cc1OC)C1C(=O)c3ccc4c(c3OC1CO2)CC(/C(C)=C\[123I])O4` (stereo not shown) [^123I-ZIROT, 7-(Z)-[^123I]iodorotenone], for which, in the data set with dog heart [2] (dog literature data), the “ratio of slope (Broisat et al.) to standardized ^99mTc-Sestamibi slope (Glover et al.)” value is 2.5. In the data set on dog heart [3], the “slope of non-linear fitted line, uptake vs microsphere flow (FIG. 3 of Broisat et al.)” value is reported as −3.59.

For the compound `COc1cc2c(cc1OC)C1C(=O)c3ccc4c(c3OC1CO2)CC(/C(C)=C\[125I])O4` (stereo not shown) [^125I-rotenone, 7′-Z-[^125I]iodorotenone], in data set [4], the “venous effluent rate at the later portions of the curve (FIG. 1 of Marshall et al.)” value is given as “higher venous effluent rate relative to the isomers of Mixture A”. Also, in data set [5], the “ratio of the slopes of the fitted lines vs ^99mTc-sestamibi (Marshall et al.)” value worked out at 2.69.

Regarding `[201Tl]` [^201Tl, ^201Thallium], in the data set with rabbit hearts, the “fractional appearance rates at later time points” value is given as “higher fractional appearance rates” and the “initial peak fractional venous appearance rate” value is recorded as “lower fractional venous appearance rates”.

Regarding “Technetium (^99mTc) tetrofosmin [^99mTc-tetrofosmin]”, the “myocardial flow rate at which uptake begins to level off (roll off)” value in the data set with pig heart turned out to be 2 mL/min/g. For the same compound, the “cellular internalization over time (cpm per total protein)” value with rat cardiomyocytes is “evident at 15 s but a gradual increase was seen up to 5 min”.
